According to US20260210939A1, “MODIFIED OLFACTORY RECEPTORS” (GIVAUDAN SA, priority 2022, published 2026):
“Also recorded” adds a separate entry of the source.

How the values were obtained:
[1] = molecular target: T1, OR52E8 (Homo sapiens, UniProt Q6IFG1); format: cell-based
T1 construct: Improved functional expression of modified OR-genes containing the truncated, optimized C-terminus; expressed in transfected cells; host or cells: HEK293T stably expressing human RTP1S(V227I) and RTP2(L220R)
Excerpt: Activation of OR52E8 by odorant acids present in human sweat (Natsch et al. A specific bacterial aminoacylase cleaves odorant precursors secreted in the human axilla. The Journal of biological chemistry 2003; 278(8):5718-5727) was investigated with different variants of the parent receptor sequence. The wild-type variant was not activated by the acids. […] However, using the optimized sequence from Examples 1-5 led to a strong signal upon addition of 3-methyl-3-hydroxy hexanoic acid.
These two improvements were further combined and the combination was tested on OR52A5 and two further class I receptors. […] In the case of OR52A4, 4-ethyloctanoic acid, which is detected at low concentrations by the human nose, is detected with a high luciferase response already at 0.19 μM by the receptor with the C-terminal modification showing very sensitive detection of this carboxylic acid by the modified class I receptor.

[2] = molecular target: T2, OR1C1 (Homo sapiens, UniProt Q15619); format: cell-based; conditions: changed C-term. vs wild-type
T2 construct: Improved functional expression of modified OR-genes containing the truncated, optimized C-terminus; expressed in transfected cells; host or cells: HEK293T stably expressing human RTP1S(V227I) and RTP2(L220R)

[3] = molecular target: T3, OR5A2 (Homo sapiens, UniProt Q8NGI9); assay: CRE-luciferase assay, HEK293T cells expressing OR5A2 (wild-type / modified C-terminus); format: cell-based
T3 construct: Improved functional expression of modified OR-genes containing the truncated, optimized C-terminus; expressed in transfected cells; host or cells: HEK293T with stably integrated human RTP1S(V227I) and RTP2(L220R)
T3 sequence (Q8NGI9 with tags, fused parts or gaps): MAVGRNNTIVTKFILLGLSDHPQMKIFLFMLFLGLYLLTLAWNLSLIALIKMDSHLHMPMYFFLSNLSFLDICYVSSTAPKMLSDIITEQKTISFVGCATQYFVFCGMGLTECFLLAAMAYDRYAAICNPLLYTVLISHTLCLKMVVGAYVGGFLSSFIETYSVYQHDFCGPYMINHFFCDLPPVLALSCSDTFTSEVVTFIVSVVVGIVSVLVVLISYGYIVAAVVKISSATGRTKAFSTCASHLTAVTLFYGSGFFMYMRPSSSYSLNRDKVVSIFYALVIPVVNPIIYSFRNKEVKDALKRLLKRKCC

[4] = tested on: library of all human class II OR; assay: Screening of the library of all class II OR (n=408, C-terminal domain SEQ ID NO: 221) with single odorants, luciferase induction; format: cell-based
Protocol: All human class II OR and all key genetic variants of these OR were synthesized with a sequence coding for an identical modified C-terminal domain […] (SEQ ID NO: 221) in the vector pcDNA3.1(+) to generate a library of all class II OR with an improved C-terminal domain.
Parallel transfection experiments were conducted with all these plasmids (n=408) and cells expressing the different OR were stimulated with one given ligand at a time, tested at the maximal, clearly non-cytotoxic concentration. In total 26 different ligands were tested on the full library of class II receptors.

[5] = molecular target: T4, OR5AN1 (Homo sapiens, UniProt Q8NGI8); assay: Luciferase assay with chimeric OR5AN1 carrying the C-terminal sequence of OR1N2; format: cell-based
T4 construct: Lucy part is a cleavable signal peptide) (N); expressed in transfected cells
Excerpt: Similarly, the C-terminal sequence of OR5AN1 was replaced with the C-terminal sequence of the ambrettolide receptor OR1N2.

[6] = tested on: human class II OR identified in the library screening; assay: Confirmatory dose-response analysis of library-hit OR with cognate ligand, wild-type vs C-terminal domain SEQ ID NO: 221 (Table 17);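 also: Wild-type receptor sequences expressed from the pcDNA3.1(+) vector and compared with the C-terminally modified receptors in dose-response tests using each receptor's cognate ligand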
Protocol: Selected ligand—OR pairs were then tested in a confirmatory test with a dose response analysis.
For selected receptors, the wild-type sequence was synthesized and cloned into pcDNA3.1 (+). Dose-response analysis with the cognate ligand was then performed for both the wild-type and the modified sequence.

[7] = molecular target: T5, OR7C1 (Homo sapiens, UniProt O76099, D296E/G302K/M297V/R299D/T295K/V126I); assay: CRE-luciferase assay, HEK293T cells expressing OR7C1 (wild-type / modified C-terminus); format: cell-based
T5 construct: Improved functional expression of modified OR-genes containing the truncated, optimized C-terminus; expressed in transfected cells; host or cells: HEK293T stably expressing human RTP1S(V227I) and RTP2(L220R)
T5 sequence (O76099 with tags, fused parts or gaps V126I/T295K/D296E/M297V/R299D/G302K): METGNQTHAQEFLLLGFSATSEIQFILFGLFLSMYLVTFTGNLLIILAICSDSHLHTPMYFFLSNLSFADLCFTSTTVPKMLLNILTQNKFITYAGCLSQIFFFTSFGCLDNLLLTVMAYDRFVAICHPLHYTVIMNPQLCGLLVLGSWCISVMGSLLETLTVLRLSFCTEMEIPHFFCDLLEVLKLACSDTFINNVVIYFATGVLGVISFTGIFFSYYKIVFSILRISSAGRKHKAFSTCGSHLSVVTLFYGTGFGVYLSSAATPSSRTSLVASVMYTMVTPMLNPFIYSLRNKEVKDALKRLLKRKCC
Excerpt: To test for possible variants of the sequence […]CC (SEQ ID NO: 86) leading to similar improved functional expression, different point mutations were introduced into the first 16 amino acids of this sequence (corresponding to […], SEQ ID NO: 10) and the variants were fused after the TM7 with OR7C1. […] The test concentrations were selected to fall into the range of partial activity of the wild-type sequence.

[8] = tested on: OR7A17 and OR7C1; assay: Cells expressing one or both of OR7A17 and OR7C1 (C-terminal domain SEQ ID NO: 221), luciferase; format: cell-based, human
Excerpt: In order to screen for a specific odor description, some or all members of a given set of OR which was identified to be specific for a given odor description as shown in example 25 can be combined in a screening for new odorants or new odorant mixtures. The screening on the different OR can be performed sequentially or in parallel assays with the individual OR of the OR set. Additionally, some or all of the OR of the OR set specific for the odor-description can also be co-expressed in a single cell line. Thus, to screen for woody-ambery molecules, cells were either separately or simultaneously transfected with two plasmids coding for the optimized OR7A17 and OR7C1 both with the C-terminal domain of SEQ ID NO: 221. […] Cells expressing both receptors become functional sensors for the Ambery-woody odor description and detect both ligands down to low concentrations.

[9] = molecular target: T5, OR7C1; assay: CRE-luciferase assay, HEK293T cells expressing OR7C1 (wild-type / modified C-terminus); format: cell-based; remark: listed apart in the source
[10] = molecular target: T6, OR10J5 (Homo sapiens, UniProt Q8NHC4); format: cell-based; conditions: changed C-term. vs wild-type
T6 construct: Improved functional expression of modified OR-genes containing the truncated, optimized C-terminus; expressed in transfected cells; host or cells: HEK293T stably expressing human RTP1S(V227I) and RTP2(L220R)
T6 sequence (Q8NHC4 with tags, fused parts or gaps): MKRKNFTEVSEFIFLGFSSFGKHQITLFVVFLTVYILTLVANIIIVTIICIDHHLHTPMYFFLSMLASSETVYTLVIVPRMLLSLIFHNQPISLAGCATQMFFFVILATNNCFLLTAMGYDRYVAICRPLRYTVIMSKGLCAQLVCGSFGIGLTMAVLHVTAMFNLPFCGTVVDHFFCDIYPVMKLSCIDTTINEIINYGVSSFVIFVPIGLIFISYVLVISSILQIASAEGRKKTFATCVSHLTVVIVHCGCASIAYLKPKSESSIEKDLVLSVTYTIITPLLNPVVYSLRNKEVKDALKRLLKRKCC

[11] = molecular target: T6, OR10J5; format: cell-based
Protocol: Activation of OR10J5 with the C-terminal domain of SEQ ID NO: 86 by (S,E)-10-hydroxy-4,8-dimethyldec-4-enal or (R,E)-10-hydroxy-4,8-dimethyldec-4-enal was measured in a dose-response analysis.
Potency of the two tested OR10J5 ligands is expressed as the EC20% value, which is the concentration that leads to a 20% increase of the luciferase activity relative to the positive control (100 μM, Mahonial; (4E)-9-hydroxy-5,9-dimethyl-4-Decenal). […] Because of the difference in EC20%, a much lower concentration of the (S,E)-isomer is needed to activate the receptor compared to the concentration needed of the (R,E)-isomer. […] This example further illustrates the usefulness of the improved assay to determine the most odor-active isomers.

[12] = tested on: library of human class II OR; assay: Screening of the class II OR library with a mixture of odorants of one odor description; format: cell-based; conditions: OR with C-terminal domain SEQ ID NO: 221
Excerpt: Single odorants may trigger activation of multiple OR as shown by the case of Ambrofix in example 18, which activates the specific receptors OR7E24 and OR7A17. On the other hand, multiple odorants may be perceived as and described by certain common odor descriptors due to their common activation of a given set of OR. To trigger a specific odor sensation, thus a specific set of OR may need to be activated. This specific OR set can be identified by mixing several odorants with a given odor description. The mixture is then screened on the full library of OR. The identified set of OR can then be further used to screen for that particular odor description. For example, to identify a typical set of OR for the odor description of “fruity esters”, a mixture of the following compounds was made: Pentanoic acid, 2-methyl ethyl ester; Butanoic acid, 3-methyl-, ethyl ester; Acetic acid, phenoxy-, 2-propenyl ester; Hexanoic acid, ethyl ester; Acetic acid, (3-methylbutoxy)-, 2-propenyl ester; Acetic acid, (cyclohexyloxy)-, 2-propenyl ester; Butanoic acid, 2-methyl-, (3Z/E)-3-hexenyl ester; Cyclohexanecarboxylic acid, ethyl ester and Oxiranecarboxylic acid, 3-phenyl, ethyl ester. This mixture was screened against the full library of OR as described in example 18. […]

T1 sequence (Q6IFG1 with tags, fused parts or gaps): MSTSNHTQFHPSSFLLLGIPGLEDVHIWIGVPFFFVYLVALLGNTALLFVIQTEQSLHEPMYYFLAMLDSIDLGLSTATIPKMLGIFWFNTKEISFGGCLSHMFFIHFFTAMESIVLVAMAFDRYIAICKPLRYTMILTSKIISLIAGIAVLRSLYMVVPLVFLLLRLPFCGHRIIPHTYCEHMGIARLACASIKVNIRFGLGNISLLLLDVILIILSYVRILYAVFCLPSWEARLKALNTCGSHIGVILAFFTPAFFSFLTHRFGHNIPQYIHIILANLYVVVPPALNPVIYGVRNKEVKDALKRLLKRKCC
T2 sequence (Q15619 with tags, fused parts or gaps): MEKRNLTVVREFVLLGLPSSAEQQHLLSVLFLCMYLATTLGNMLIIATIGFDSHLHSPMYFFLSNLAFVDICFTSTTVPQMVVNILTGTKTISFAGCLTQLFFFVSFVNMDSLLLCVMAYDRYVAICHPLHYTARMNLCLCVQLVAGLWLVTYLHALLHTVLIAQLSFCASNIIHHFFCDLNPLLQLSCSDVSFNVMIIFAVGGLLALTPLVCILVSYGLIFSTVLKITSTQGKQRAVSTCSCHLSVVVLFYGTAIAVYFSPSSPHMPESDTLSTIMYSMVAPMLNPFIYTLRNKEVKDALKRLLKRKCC
T4 sequence (Q8NGI8 with tags, fused parts or gaps limits assumed): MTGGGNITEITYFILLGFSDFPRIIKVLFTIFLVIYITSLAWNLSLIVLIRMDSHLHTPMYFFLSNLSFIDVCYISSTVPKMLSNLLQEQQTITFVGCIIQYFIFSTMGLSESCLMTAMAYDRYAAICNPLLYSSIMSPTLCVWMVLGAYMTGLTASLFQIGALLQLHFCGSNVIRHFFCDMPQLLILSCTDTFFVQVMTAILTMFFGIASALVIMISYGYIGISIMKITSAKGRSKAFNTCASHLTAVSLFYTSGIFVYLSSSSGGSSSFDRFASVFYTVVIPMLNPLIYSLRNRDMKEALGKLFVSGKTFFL

CCCC(C)(O)CC(=O)O (stereo not shown) [3-Methyl-3-Hydroxy-Hexanoic acid, 3-Methyl-3-hydroxyhexanoic acid]
Comments on efficacy [1]: No induction
Fold-improvement potency ([1]; changed C-term. vs wild-type): >>5
Fold-improvement threshold ([1]; changed C-term. vs wild-type): >>5

C=CC(C)(O)CCC=C(C)C (stereo not shown) [Linalool]
Fold-improvement potency [2]: 1.9
Fold-improvement threshold [2]: 2.1

C[C@@H]1CCCCCCCCCCCCC(=O)C1 [Muscone, reference compound]
concentration at which induction starts ([3]; OR5A2 with modified C-terminus): 0.03 µM
concentration at which activation occurs ([3]; modified OR5A2, SEQ ID NO: 86): 1 µM
Activated OR and OR variants ([4]; ligand at maximal non-cytotoxic concentration, full class II library): OR5AN1, OR5A2
functional response of chimeric OR5AN1 [5]: not showing any functional response

CC(=O)c1c(C)c([N+](=O)[O-])c(C(C)(C)C)c([N+](=O)[O-])c1C [Musk ketone]
functional response of chimeric OR5AN1 [5]: not showing any functional response

C[C@H]1CC[C@@]2(O)C(C)(C)[C@@H]3CC[C@@]2(C)[C@H]1C3 [Patchoulol]
Detection threshold; concentration for 2-fold induction, changed C-term. ([6]; OR14J1, modified C-terminus SEQ ID NO: 221 (SEQ ID NO: 738)): 0.45 µM
Fold improvement efficacy ([6]; OR14J1, modified C-terminus SEQ ID NO: 221 vs wild-type, maximal induction): 33.4 fold
EC50 ([6]; read-out: Potency, EC50 changed C-term, OR14J1, modified C-terminus SEQ ID NO: 221 (SEQ ID NO: 738)): 2200 nM
activity of the wild-type OR ([6]; wild-type sequence, cognate ligand): inactive
induction in the library screening ([4]; 50 μM Patchoulol): strong induction of OR14J1; also recorded: weak induction of OR11A1 and OR7A17

CC(CO)C1=C2C(C)(C)C3CCC2(C3)C(C)(C)CC1 (stereo not shown) [Ambermax]
Comments on efficacy [7]: 3.5-fold lower
ligand specificity in cells expressing OR7A17 and/or OR7C1 [8]: specific ligand for OR7C1
Detection threshold; concentration for 2-fold induction ([9]; changed C-term. SEQ ID NO: 86): 0.17 µM
Fold-improvement potency ([9]; changed C-term. vs wild-type): 2.7
Detection threshold; concentration for 2-fold induction ([9]; wild-type): 2.76 µM

Cc1cc(CC(C)C)ccc1CCC=O [Nympheal, 3-(4-isobutyl-2-methylphenyl)propanal]
Fold-improvement potency [10]: >>6
Fold-improvement threshold [10]: >>6
Comments on efficacy [11]: Only 1.8-fold

B1: OR2L5: class II OR with C-terminal domain SEQ ID NO: 221 (protein, UniProt Q8NG80 1-312, looked up)
Olfactory receptor 2L5: MENYNQTSTDFILLGLFPPSKIGLFLFILFVLIFLMALIGNLSMILLIFLDTHLHTPMYFLLSQLSLIDLNYISTIVPKMASDFLYGNKSISFIGCGIQSFFFMTFAGAEALLLTSMAYDRYVAICFPLHYPIRMSKRMYVLMITGSWMIGSINSCAHTVYAFRIPYCKSRAINHFFCDVPAMLTLACTDTWVYEYTVFLSSTIFLVFPFTGIACSYGWVLLAVYRMHSAEGRKKAYSTCSTHLTVVTFYYAPFAYTYLCPRSLRSLTEDKVLAVFYTILTPMLNPIIYSLRNKEVMGALTRVIQNIFSVKM
Fold luciferase induction (20 ppm fruity ester mix) [12]: 8.9

B2: OR11G2: class II OR with C-terminal domain SEQ ID NO: 221 (protein, UniProt Q8NGC1 1-345, looked up)
Olfactory receptor 11G2: MHFLSQNDLNINLIPHLCLHRHSVIAGAFTIHRHMKIFNSPSNSSTFTGFILLGFPCPREGQILLFVLFTVVYLLTLMGNGSIICAVHWDQRLHAPMYILLANFSFLEICYVTSTVPSMLANFLSDTKIISFSGCFLQFYFFFSLGSTECFFLAVMAFDRYLAICRPLRYPTIMTRRLCTNLVVNCWVLGFIWFLIPIVNISQMSFCGSRIIDHFLCDPAPLLTLTCKKGPVIELVFSVLSPLPVFMLFLFIVGSYALVVRAVLRVPSAAGRRKAFSTCGSHLAVVSLFYGSVLVMYGSPPSKNEAGKQKTVTLFYSVVTPLLNPVIYSLRNKDMRKALKKFWGT
Fold luciferase induction (20 ppm fruity ester mix) [12]: 7.2
